From US20230097883A1, “ERGOTHIONEINE PET COMPOUNDS AND METHODS OF USE THEREOF” (VANDERBILT UNIVERSITY, priority 2021, published 2023)

Columns and labels:
[1] = Cupric ion chelating (CIC) assay; format: biochemical; conditions: increasing ERGO concentrations
Excerpt: We also assessed ERGO's transition metal scavenging using cupric ion chelating (CIC) and ferrous ion chelating (FIC) assays. In these experiments, pyrocatechol violet or ferrozine forms a complex with free Cu(II) or Fe(II), respectively, resulting in a chromophore with a strong absorbance signal. The pyrocatechol violet-COI) complex has an absorbance lambda max (λmax) at 630 nm, and ferrozine-Fe(II) has a λmax at 562 nm. In the presence of ERGO, fewer free metals are available to form these complexes, resulting in less absorbance.
The copper chelating activity of ERGO was determined using a CIC assay (Zen-Bio Inc., Durham, N.C.). Assays contained triplicated samples, standards, background, and max absorbance wells. All the assay absorbance values were subtracted from the average background absorbance, comprising of water and assay buffer (1:1). Maximal absorbance was measured by averaging the absorbance values of 3 wells containing only CuSO4 and assay buffer. […] The plate was then read at 632 nm using a Biotek Synergy 4 plate reader. Absorbances were averaged, and the background absorbance was subtracted from the sample and maximum averages (Abstest and Absmax). Cupric ion chelating percentage was then calculated using the following equation: Cupric ion chelating (%)=100×(Absmax−Abstest)/Absmax.

[2] = Ex-vivo cut-and-count whole-body biodistribution of I.V.-injected [11C]ERGO in WT mice; set-up: species or system mouse; conditions: for brain concentration: after cardiac perfusion
Experimental: At 5 or 10 min post injection, anesthetized mice were laid on the shallow tray filled with crushed ice and the thoracic cavity was accessed using a scalpel after making […] mid-line incision from the abdominal area. After careful separation of the liver from the diaphragm, the thoracic opening was stabilized with a retractor. Perfusion was performed as we described in the past. Following removal of air bubbles, approximately 30 mL (pH7.4) of ice-cold PBS buffer is slowly injected in the left ventricle toward the ascending aorta using a 25-G syringe while the right atrium was snipped off using a curved point squeeze snip scissors to facilitate drainage of the systemic venous return. Then, 30 mL of 4% paraformaldehyde (PFA, pH 7.4) was perfused. When completed, tissues were harvested and weighed before counting using the automatic gamma counter (Hidex).
Cohorts of WT mice were injected with [^11C]ERGO probe, followed by cardiac perfusion 5 (n=5), 10 (n=5) and 30 (n=6) minutes after injection before tissues were collected for activity counting.

[3] = tested on: oxidative stress; assay: PET imaging of LPS-induced neuroinflammation with [11C]ERGO radioligand, with Tempol blocking; format: in vivo, mouse; conditions: LPS 5 mg/Kg i.p. 24 h before; 20 MBq/0.1 mL I.V.; 30 min scan from 10 min after injection
Experimental: The mice were injected with ˜20 MBq/0.1 ml 11C-ERGO via the tail vein and returned to their cages for 10 min. Then they were anesthetized with 2% isofluorane and imaged in an Inveon microPET (Siemens Pre-clinical, Knoxville, Tenn., USA) for 30 min in static mode followed by a CT scan using a NanoSPECT/CT (Mediso, Wash. D.C.) at an x-ray beam intensity of […] and x-ray voltage of 45 kVp. PET images were reconstructed using the iterative MAP reconstruction algorithm with 18 iterations and a beta smoothing value of 0.001 into 128×128×95 slices with a voxel size of 0.388 mm×0.388 mm×0.796 mm. The CT images were reconstructed into 170×170×126 slices at a voxel size of 0.4×0.4×0.4 mm^3. The PET and CT images were co-registered using the imaging tool AMIDE.
The mouse model of LPS-induced neuroinflammation was developed based on past reports. The LPS derived from Escherichia coli […] (Sigma Aldrich, St Louis, Mo.) was formulated in sterilized dd. water and given a high dose of LPS formulation (5 mg/Kg) through intraperitoneal injection 24 h before PET imaging. This high dose would result in approximately 12-13% body weight loss over the course of 24 h. After PET imaging, animals were sacrificed, and the brains were collected for histology analysis.
The reported LPS mouse model of neuroinflammation in the past was reproduced for the validation of the specificity of the probe. […]

[4] = about 30 minutes after injection
[5] = initial value (5 minutes post I.V. injection)

SMILES	absorbance signal of pyrocatechol violet-Cu(II) complex [1]	blood concentration [2, 4] [% ID/g]	eyes concentration [2, 4] [% ID/g]	heart concentration [2, 4] [% ID/g]	kidneys concentration [2, 4] [% ID/g]	liver concentration [2, 4] [% ID/g]	small intestine concentration [2, 4] [% ID/g]	spleen concentration [2, 4] [% ID/g]	brain concentration [2, 4] [% ID/g]	blood concentration [2, 5] [% ID/g]	eyes concentration [2, 5] [% ID/g]	heart concentration [2, 5] [% ID/g]	kidneys concentration [2, 5] [% ID/g]	liver concentration [2, 5] [% ID/g]	small intestine concentration [2, 5] [% ID/g]	spleen concentration [2, 5] [% ID/g]	brain concentration [2, 5] [% ID/g]	PET signal in brain regions, LPS-treated versus nontreated WT mice [3]
C[N+](C)(C)[C@@H](Cc1c[nH]c(=S)[nH]1)C(=O)[O-] [ERGO, L-ergothioneine]	decreased as the concentrations of ERGO increased in a dose-dependent fashion	–	–	–	–	–	–	–	–	–	–	–	–	–	–	–	–	–
C[N+](C)([11CH3])[C@@H](Cc1c[nH]c(=S)[nH]1)C(=O)[O-] [[^11C]ERGO]	–	0.33	0.52	0.51	4.2	2.86	0.64	0.97	0.35	0.39	0.11	0.13	1.33	0.61	0.2	0.2	0.13	stronger than that from nontreated counterparts across every major region of the brain
